One may read the ED50 as the dose that gives a 50% effect, or the effect in half of the subjects.

≈ marks a conversion by molar mass, not a printed value. Read-outs that look alike come from different tables or passages of the source.

Assay [1] concerns Enterococcus faecium ATCC 8043. Put plainly: In vitro antibacterial activity, agar dilution MIC. The class given is cell-based. The conditions noted are these: ATCC8043, read-out: MIC. The method, then:
(§1) The antimicrobial spectra of a number of compounds of the invention were tested by the following method:
(§2) Twelve petri dishes containing successive aqueous dilutions of the test compound mixed with 10 ml of sterilized Brain Heart Infusion agar (Difco 0418-01-5) are prepared. Each plate is inoculated with 1:100 (or 1:10 for slow growing strains, primarily Micrococcus and Streptococcus) dilutions of up to 32 different microorganisms, using a Steers replicator block The inoculated plates are incubated at 35°-37° C. for 20-24 hours. In addition, a control plate, using BHI agar containing no test compound, is prepared and incubated at the beginning and end of each test.
(§3) An additional plate containing a compound having known susceptibility patterns for the organisms being tested and belonging to the same antibiotic class as the test compound is also prepared and incubated as a further control, as well as to provide test-to-test comparability. Erythromycin A was used for this purpose.
(§4) After incubation, each disk is read. The MIC is defined as the lowest concentration of drug yielding no growth, a slight haze, or sparsely isolated colonies on the inoculum spot as compared to the growth control.

In the next assay the test system is Escherichia coli DC-2. Put plainly: In vitro antibacterial activity, agar dilution MIC. Format: cell-based. The conditions noted are these: DC2, E. coli DC-2, Brain Heart Infusion agar, 20-24 hours, read-out: MIC. As to the method:
as §1, §2, §3, §4

A further assay deals with Escherichia coli H560. The assay can be described thus: In vitro antibacterial activity, agar dilution MIC. Format: cell-based. The conditions noted are these: E. coli H560, Brain Heart Infusion agar, 20-24 hours, read-out: MIC. The method, then:
as §1, §2, §3, §4
For orientation: Agar dilution tests growth on a series of plates holding different concentrations.

The subject of a further assay is Escherichia coli Juhl. Put plainly: In vitro antibacterial activity, agar dilution MIC. The class given is cell-based. The method, then:
as §1, §2, §3, §4

Another assay has as its system Escherichia coli SS. The assay can be described thus: In vitro antibacterial activity, agar dilution MIC. Format: cell-based. The conditions noted are these: read-out: MIC. As to the method: as §1, §2, §3, §4
Assay [2] deals with Micrococcus luteus ATCC 4698. The assay can be described thus: In vitro antibacterial activity, agar dilution MIC. Format: cell-based. The conditions noted are these: ATCC4698. As to the method:
as §1, §2, §3, §4

Assay [3] has as its system Micrococcus luteus ATCC 9341. The assay can be described thus: In vitro antibacterial activity, agar dilution MIC. The class given is cell-based. The conditions noted are these: ATCC9341, M. luteus ATCC 9341, Brain Heart Infusion agar, 20-24 hours, read-out: MIC. The method, then:
as §1, §2, §3, §4

A further assay concerns Staphylococcus aureus 45. The assay can be described thus: In vitro antibacterial activity, agar dilution MIC. Format: cell-based. The conditions noted are these: 45. As to the method:
as §1, §2, §3, §4

For assay [4], the system named is Staphylococcus aureus A5177. The assay can be described thus: In vitro antibacterial activity, agar dilution MIC. The class given is cell-based. The conditions noted are these: S. aureus A5177, Brain Heart Infusion agar, 20-24 hours, read-out: MIC. As to the method:
as §1, §2, §3, §4

The subject of assay [5] is Staphylococcus aureus ATCC 6538P. The assay can be described thus: In vitro antibacterial activity, agar dilution MIC. The class given is cell-based. The conditions noted are these: ATCC6538P, S. aureus ATCC 6538P, Brain Heart Infusion agar, 35-37° C., 20-24 hours, read-out: MIC. As to the method: as §1, §2, §3, §4
Assay [6] deals with Staphylococcus aureus CMX 503A. Put plainly: In vitro antibacterial activity, agar dilution MIC. The conditions noted are these: CMX503A, S. aureus CMX 503A, Brain Heart Infusion agar, 20-24 hours, read-out: MIC. The class given is cell-based. The method, then: as §1, §2, §3, §4
Assay [7] deals with Staphylococcus aureus CMX 553. Put plainly: In vitro antibacterial activity, agar dilution MIC. Format: cell-based. The conditions noted are these: CMX553, S. aureus CMX 553, Brain Heart Infusion agar, 20-24 hours, read-out: MIC. As to the method: as §1, §2, §3, §4
The subject of assay [8] is Staphylococcus aureus CMX 686B. Put plainly: In vitro antibacterial activity, agar dilution MIC. The class given is cell-based. The conditions noted are these: CMX686B, S. aureus CMX 686B, Brain Heart Infusion agar, 20-24 hours, read-out: MIC. The method, then:
as §1, §2, §3, §4

The subject of assay [9] is Staphylococcus epidermidis 3519. The assay can be described thus: In vitro antibacterial activity, agar dilution MIC. The class given is cell-based. The conditions noted are these: S. epidermidis 3519, Brain Heart Infusion agar, 20-24 hours, read-out: MIC. As to the method: as §1, §2, §3, §4
For assay [10], the system named is Streptococcus agalactiae CMX 508. The assay can be described thus: In vitro antibacterial activity, agar dilution MIC. The conditions noted are these: CMX508, S. agalactiae CMX 508, Brain Heart Infusion agar, 20-24 hours, read-out: MIC. The class given is cell-based. As to the method:
as §1, §2, §3, §4

For assay [11], the system named is Streptococcus bovis A5169. Put plainly: In vitro antibacterial activity, agar dilution MIC. The conditions noted are these: read-out: MIC. Format: cell-based. As to the method: as §1, §2, §3, §4
In assay [12] the test system is Streptococcus pyogenes 2548 INDUC. The assay can be described thus: In vitro antibacterial activity, agar dilution MIC. The conditions noted are these: S. pyogenes 2548 INDUC, Brain Heart Infusion agar, 20-24 hours, read-out: MIC. The class given is cell-based. As to the method: as §1, §2, §3, §4
The test system of assay [13] is Streptococcus pyogenes 930 CONST. Put plainly: In vitro antibacterial activity, agar dilution MIC. Format: cell-based. The conditions noted are these: 930CONST. As to the method:
as §1, §2, §3, §4

Assay [14] concerns Streptococcus pyogenes EES61. Put plainly: In vitro antibacterial activity, agar dilution MIC. The class given is cell-based. The conditions noted are these: S. pyogenes EES61, Brain Heart Infusion agar, 20-24 hours, read-out: MIC. The method, then:
as §1, §2, §3, §4

The subject of assay [15] is Staphylococcus aureus 45 RAR 2. The assay can be described thus: microbe, parasite or virus in culture. Format: cell-based. The conditions noted are these: 45RAR2. The method, then:
as §1, §2, §3, §4

Assay [16] deals with Staphylococcus aureus (NCTC 10649). The assay can be described thus: In-vivo mouse protection assay (acute mouse protection test). More on the design: species or system Swiss albino mice. The method, then:
(§5) The acute mouse protection test is conducted on ten mice with each of three levels of drug. Mouse mortality is used to calculate an ED50 value, i.e., the dose of drug required to protect 50% of the test animals against death due to the inoculum challenge.
(§6) The acute mouse protection test is conducted on female, Swiss albino mice, 18-20 grams in weight. […] To check the potency of the inoculum, a titration of the indicated test organism is carried out in control animals. The treatment group of animals is dosed with the test compound at 1 and 5 hours post infection and observed for 7 days. The ED50 values are calculated using the mortality data collected.

The test system of assay [17] is Streptococcus pneumoniae (6303). The description is as above. More on the design: species or system Swiss albino mice. The conditions noted are these: 168 h. The method, then:
as §5, §6

Assay [18] relates to Streptococcus pyogenes C-203. The description is as above. More on the design: species or system Swiss albino mice. As to the method:
as §5, §6

On to `CC[C@H]1OC(=O)[C@H](C)[C@@H](O[C@H]2C[C@@](C)(OC)[C@@H](N)[C@H](C)O2)[C@H](C)[C@@H](O[C@@H]2O[C@H](C)C[C@H](N(C)C)[C@H]2O)[C@](C)(O)C[C@@H](C)[C@@H](N2CCCCC2)[C@H](C)[C@@H](O)[C@]1(C)O` [Example 31], for which the MIC is 0.2 µg/mL (≈ 0.249 µM) in assay [1]; 3.1 µg/mL (≈ 3.86 µM) in the assay with Escherichia coli DC-2; 1.56 µg/mL (≈ 1.94 µM) in the assay on Escherichia coli H560; 6.2 µg/mL (≈ 7.73 µM) with Escherichia coli Juhl; 0.2 µg/mL (≈ 0.249 µM) in the assay with Escherichia coli SS; 0.39 µg/mL (≈ 0.486 µM) in assay [2]. Further, the MIC was 0.05 µg/mL (≈ 0.0623 µM) in assay [3]; 0.39 µg/mL (≈ 0.486 µM) in the assay on Staphylococcus aureus 45; 6.2 µg/mL (≈ 7.73 µM) in assay [4]; 0.78 µg/mL (≈ 0.972 µM) in [5]; 0.78 µg/mL (≈ 0.972 µM) in assay [6]; 0.39 µg/mL (≈ 0.486 µM) in [7]. Moreover, the MIC in [8] was 0.39 µg/mL (≈ 0.486 µM); in [9] it was 0.78 µg/mL (≈ 0.972 µM); in assay [10], 0.05 µg/mL (≈ 0.0623 µM); in assay [11], 0.02 µg/mL (≈ 0.0249 µM); in [12] it was 6.2 µg/mL (≈ 7.73 µM); in assay [13], > 100 µg/mL. Also, the MIC in assay [14] amounted to 0.05 µg/mL (≈ 0.0623 µM); in assay [15], 0.78 µg/mL (≈ 0.972 µM). The ED50 in assay [16] (NCTC10649, 168 h, Oral, S. aureus NCTC 10649, dosed 1 and 5 hours post infection, 7 days, read-out: ED50) amounted to 125 mg/kg; in assay [16] (NCTC10649, sc, 168 h, Subcutaneous, S. aureus NCTC 10649, dosed 1 and 5 hours post infection, 7 days, read-out: ED50) it was 25.7 mg/kg; in assay [17] (po), 13.8 mg/kg; in assay [17] (sc, Subcutaneous, S. pneumoniae 6303, dosed 1 and 5 hours post infection, 7 days, read-out: ED50), 1 mg/kg; in [18] (C203, 168 h, Oral, S. pyogenes C-203, dosed 1 and 5 hours post infection, 7 days, read-out: ED50), 27.9 mg/kg; in [18] (C203, sc, 168 h, Subcutaneous, S. pyogenes C-203, dosed 1 and 5 hours post infection, 7 days, read-out: ED50), 0.8 mg/kg.

Consider `CC[C@H]1OC(=O)[C@H](C)[C@@H](O[C@H]2C[C@@](C)(OC)[C@@H](O)[C@H](C)O2)[C@H](C)[C@@H](O[C@@H]2O[C@H](C)C[C@H](N(C)C)[C@H]2O)[C@](C)(O)C[C@@H](C)C(=O)[C@H](C)[C@@H](O)[C@]1(C)O` [erythromycin], for which the ED50 in assay [16] (NCTC10649, po, 168 h) was determined as 98 mg/kg; in assay [16] (NCTC10649, sc, 168 h), 20 mg/kg; in [17] (po), 21.5 mg/kg; in assay [17] (sc), 0.9 mg/kg; in assay [18] (C203, po, 168 h) it was 12 mg/kg; in [18] (C203, sc, 168 h) it was 1.8 mg/kg.

For the origin of these results see patent US5075289A, “9-R-azacyclic erythromycin antibiotics” (priority 1988, dated 1991).
